Data reported in PubChem BioAssay AID192 (DTP/NCI, 2004).
Where “and” joins values, the source holds several entries; their conditions need not be identical. Identical values can stand only once. Toxic doses and inconclusive results are not listed.

System: BDF1 mice, B16 melanoma ip, median survival T/C
Test: NCI In Vivo Anticancer Drug Screen. Data for tumor model B16 Melanoma (intraperitoneal) in B6D2F1 (BDF1) mice
Conditions: endpoint: median survival time, higher = longer survival
Method in brief: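 Vehicle-treated animals serve as the reference (C); treated animals (T) are scored for survival or tumor size after tumor transplantation.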

[1] = dose: 12.5 mg/kg/injection, schedule: Q01DX009 (ip), vehicle: saline with Tween-80
[2] = dose: 25.0 mg/kg/injection, schedule: Q01DX009 (ip), vehicle: saline with Tween-80
[3] = dose: 2.5 mg/kg/injection, schedule: Q01DX009 (ip), vehicle: Klucel (hydroxypropylcellulose) (HPC)
[4] = dose: 1.25 mg/kg/injection, schedule: Q01DX009 (ip), vehicle: Klucel (hydroxypropylcellulose) (HPC)

COc1ccc2c(Nc3ccc(NS(C)(=O)=O)cc3)c3ccccc3nc2c1
T/C (dose: 1.87 mg/kg/injection, schedule: Q01DX009 (ip), vehicle: saline with Tween-80): 163 % of control | T/C (dose: 2.5 mg/kg/injection, schedule: Q01DX009 (ip), vehicle: saline with Tween-80): 150 % of control | T/C (dose: 3.75 mg/kg/injection, schedule: Q01DX009 (ip), vehicle: saline with Tween-80): 163 % of control | T/C (dose: 5.0 mg/kg/injection, schedule: Q01DX009 (ip), vehicle: saline with Tween-80): 161 % of control | T/C (dose: 5.3 mg/kg/injection, schedule: Q01DX009 (ip), vehicle: saline with Tween-80): 188 % of control | T/C (dose: 7.5 mg/kg/injection, schedule: Q01DX009 (ip), vehicle: saline with Tween-80): 193 % of control | T/C (dose: 8.0 mg/kg/injection, schedule: Q01DX009 (ip), vehicle: saline with Tween-80): 188 % of control | T/C (dose: 12.0 mg/kg/injection, schedule: Q01DX009 (ip), vehicle: saline with Tween-80): 188 % of control | T/C (dose: 12.5 mg/kg/injection, schedule: Q01DX009 (ip), vehicle: saline): 172 % of control | T/C (dose: 50.0 mg/kg/injection, schedule: Q01DX001 (ip), vehicle: saline sonified): 175 % of control | T/C (dose: 100.0 mg/kg/injection, schedule: Q01DX001 (ip), vehicle: saline sonified): 194 % of control

CSC(=S)N/N=C/c1ccccn1
T/C (dose: 0.75 mg/kg/injection, schedule: Q01DX009 (ip), vehicle: saline with Tween-80): 86 % of control | T/C (dose: 1.5 mg/kg/injection, schedule: Q01DX009 (ip), vehicle: saline with Tween-80): 89 % of control | T/C (dose: 3.0 mg/kg/injection, schedule: Q01DX009 (ip), vehicle: saline with Tween-80): 86 % of control | T/C (dose: 6.0 mg/kg/injection, schedule: Q01DX009 (ip), vehicle: saline with Tween-80): 94 % of control | T/C [1]: 110 % of control | T/C [2]: 105 % of control

COc1cc2c(cc1OC)C1CNC(=O)C1C(c1ccccc1)C2 (stereo not given)
T/C [3]: 91 % of control | T/C (dose: 3.75 mg/kg/injection, schedule: Q01DX009 (ip), vehicle: Klucel (hydroxypropylcellulose) (HPC)): 91 % of control | T/C (dose: 5.0 mg/kg/injection, schedule: Q01DX009 (ip), vehicle: Klucel (hydroxypropylcellulose) (HPC)): 98 % of control | T/C (dose: 7.5 mg/kg/injection, schedule: Q01DX009 (ip), vehicle: Klucel (hydroxypropylcellulose) (HPC)): 97 % of control | T/C (dose: 10.0 mg/kg/injection, schedule: Q01DX009 (ip), vehicle: Klucel (hydroxypropylcellulose) (HPC)): 94 % of control | T/C (dose: 15.0 mg/kg/injection, schedule: Q01DX009 (ip), vehicle: Klucel (hydroxypropylcellulose) (HPC)): 92 % of control

CC(C)(O)C(I)C[n+]1ccccc1 (stereo not given)
T/C (dose: 100.0 mg/kg/injection, schedule: Q04DX003 (ip), vehicle: saline): 109 % of control | T/C (dose: 200.0 mg/kg/injection, schedule: Q04DX003 (ip), vehicle: saline): 101 % of control | T/C (dose: 400.0 mg/kg/injection, schedule: Q04DX003 (ip), vehicle: saline): 114 % of control

O=C1C=CC(=O)N1c1ccc(Cl)cc1
T/C [4]: 97 % of control

CCN(CC)C(=O)c1ccc(C(Cl)(Cl)Cl)cc1
T/C (dose: 6.25 mg/kg/injection, schedule: Q01DX009 (ip), vehicle: saline with Tween-80): 95 % of control | T/C [1]: 98 % of control | T/C [2]: 90 % of control and 92 % of control

CN(C)c1ccc(N=C2C=CC(=O)C=C2)cc1
T/C (dose: 1.5 mg/kg/injection, schedule: Q01DX009 (ip), vehicle: saline): 111 % of control | T/C (dose: 3.0 mg/kg/injection, schedule: Q01DX009 (ip), vehicle: saline): 98 % of control | T/C (dose: 6.0 mg/kg/injection, schedule: Q01DX009 (ip), vehicle: saline): 105 % of control

C#CCSC(=S)NNc1ccccc1
T/C (dose: 100.0 mg/kg/injection, schedule: Q01DX009 (ip), vehicle: saline with Tween-80): 106 % of control | T/C (dose: 200.0 mg/kg/injection, schedule: Q01DX009 (ip), vehicle: saline with Tween-80): 112 % of control

CC1OC2COC(C)OC2C(C(O)COC(c2ccccc2)(c2ccccc2)c2ccccc2)O1 (stereo not given)
T/C (dose: 1.56 mg/kg/injection, schedule: Q01DX009 (ip), vehicle: Klucel (hydroxypropylcellulose) (HPC)): 89 % of control | T/C (dose: 3.12 mg/kg/injection, schedule: Q01DX009 (ip), vehicle: Klucel (hydroxypropylcellulose) (HPC)): 89 % of control | T/C (dose: 6.25 mg/kg/injection, schedule: Q01DX009 (ip), vehicle: Klucel (hydroxypropylcellulose) (HPC)): 88 % of control | T/C (dose: 50.0 mg/kg/injection, schedule: Q04DX003 (ip), vehicle: Klucel (hydroxypropylcellulose) (HPC)): 92 % of control | T/C (dose: 100.0 mg/kg/injection, schedule: Q04DX003 (ip), vehicle: Klucel (hydroxypropylcellulose) (HPC)): 97 % of control | T/C (dose: 200.0 mg/kg/injection, schedule: Q01DX009 (ip), vehicle: Klucel (hydroxypropylcellulose) (HPC)): 109 % of control

FC(F)(F)c1ccc2c(c1)N(CCCN1CCN(CCOCCCl)CC1)c1ccccc1S2
T/C (dose: 0.39 mg/kg/injection, schedule: Q01DX009 (ip), vehicle: saline): 123 % of control | T/C (dose: 0.78 mg/kg/injection, schedule: Q01DX009 (ip), vehicle: saline): 115 % of control | T/C (dose: 1.56 mg/kg/injection, schedule: Q01DX009 (ip), vehicle: saline): 110 % of control | T/C (dose: 2.34 mg/kg/injection, schedule: Q04DX003 (ip), vehicle: saline): 92 % of control | T/C (dose: 4.68 mg/kg/injection, schedule: Q04DX003 (ip), vehicle: saline): 86 % of control

COC1CC(CC2CCC(C)C(C(C)C(=O)O)O2)OC2(OC(C)(C3CCC(C)(C4OC(C5OC(O)(CO)C(C)CC5C)CC4C)O3)CC2C)C1C (stereo not given)
T/C (dose: 0.31 mg/kg/injection, schedule: Q01DX009 (ip), vehicle: Klucel (hydroxypropylcellulose) (HPC)): 102 % of control | T/C (dose: 0.63 mg/kg/injection, schedule: Q01DX009 (ip), vehicle: Klucel (hydroxypropylcellulose) (HPC)): 89 % of control | T/C [4]: 92 % of control | T/C [3]: 92 % of control
